{"source": "paper PMC10187093", "about": "“Synthesis, in silico modelling, and in vitro biological evaluation of substituted pyrazole derivatives as potential anti-skin cancer, anti-tyrosinase, and antioxidant agents” (Journal of Enzyme Inhibition and Medicinal Chemistry, 2023)", "type_in_all_cases": "cell-based, human", "key": {"A375": {"tested_on": "A375", "assay": "MTT antiproliferative/cytotoxicity assay, A375", "conditions": "Homo sapiens, A-375, 48 h, melanoma, MTT, 48 h; read-out: IC50 A375", "experimental": "(§1) Human-derived GFP-expressing melanoma A375 and epidermoid carcinoma A431 cell lines were purchased from Angio-Proteomie (Boston, MA). Human melanoma carcinoma SK-MEL-28 and human immortalised keratinocytes (HaCaT) cell lines were acquired from American Type Culture Collection (ATCC; Manassas, VA). Human cutaneous SCC cell line SCC-12[192] was generously provided by Dr. James G. Rheinwald to Dr. Tatiana Efimova. Except SK-MEL-28, which was cultured in an RPMI-1640 medium supplemented with 5% FBS, all other human immortalised cell lines were grown and maintained in DMEM containing varying percentages of FBS; 5% FBS for A431, SCC-12, and HaCaT lines, and 10% FBS for A375. All culture media were routinely supplemented with 1% PEST 100X (100 U/mL penicillin, 100 μg/mL streptomycin), and cells were cultured in incubators maintained at 37 °C under an atmosphere of 95% humidity, 20% O2, and 5% CO2. The growth media of incubated cells were changed every 2–3 days until they attained 70–80% confluence, after which they were sub-cultured for experiments and re-passaging. DMSO was used as the vehicle to prepare a 10 mM stock solution of the test compounds.\n(§2) Stock solutions (10 mM) were prepared by dissolving each compound to be screened in DMSO. From these stock solutions, escalating concentrations were prepared using the corresponding cell growth media as a diluent, and the cells (65–75% confluent) were treated with (0–40 µM) or without the drug in sext- to octuplicate and incubated for 48 h. All treatment protocols and controls were prepared as previously described.\n(§3) The potency and cytotoxicity of the test compounds against two cutaneous melanoma (A375 and SK-MEL-28) and two non-melanoma (A431 and SCC-12) SC cell lines in addition to a control immortalised normal human epidermal keratinocytes (HaCaT) cell line were assessed by MTT assay as previously described."}, "SCC-12": {"tested_on": "SCC-12", "assay": "MTT antiproliferative/cytotoxicity assay, SCC-12", "experimental": "Human-derived GFP-expressing melanoma A375 and epidermoid carcinoma A431 cell lines were purchased from Angio-Proteomie (Boston, MA). Human melanoma carcinoma SK-MEL-28 and human immortalised keratinocytes (HaCaT) cell lines were acquired from American Type Culture Collection (ATCC; Manassas, VA). […] The growth media of incubated cells were changed every 2–3 days until they attained 70–80% confluence, after which they were sub-cultured for experiments and re-passaging. DMSO was used as the vehicle to prepare a 10 mM stock solution of the test compounds.\nStock solutions (10 mM) were prepared by dissolving each compound to be screened in DMSO."}, "HaCaT": {"tested_on": "HaCaT", "assay": "MTT cytotoxicity assay, noncancerous HaCaT keratinocytes", "conditions": "Homo sapiens, HaCaT; control noncancerous keratinocytes, MTT, 48 h; read-out: IC50 HaCaT", "experimental": "as §1, §2, §3"}, "A431 [1]": {"tested_on": "A431", "assay": "Colony formation assay, A431", "conditions": "0, ½IC50, IC50, 1½IC50; 14 days; vs untreated control", "experimental": "(§4) Cells were then trypsinised, and 1000 viable cells from each treated group were seeded on […] in 10 mL of the medium, and incubated for an additional 14 days before fixation and crystal violet staining, imaging, and colonies assessment as previously described[109]^,[116]. The plates were scanned, and the area of clones was quantified with the free software Image J (Bethesda, MD) (https://imagej.nih.gov/ij/)."}, "SK-MEL-28": {"tested_on": "SK-MEL-28", "assay": "Colony formation assay, SK-MEL-28", "conditions": "0, ½IC50, IC50, 1½IC50; 14 days; vs untreated control", "experimental": "as §4"}, "A431 [2]": {"tested_on": "A431", "assay": "Scratch wound healing assay, A431", "conditions": "0, ½IC50, IC50, 1½IC50; 48 h; vs untreated control", "experimental": "The scratch wound healing assay was performed to evaluate compound P25’s ability to limit cell migration and scratch wound closure following our previously described protocol. Briefly, cells were seeded in wells of a 24-well plate and incubated to 100% confluent monolayer, following which a sterile 200 µL Gilson pipette tip was used to scratch a straight line across the centre. […] The wounded and re-epithelialisation areas were imaged at 0 h, 24 h, and 48 h using an inverted phase-contrast Olympus IX51 microscope (Olympus America Inc., Center Valley, PA) attached to an Infinity 2 digital camera. Images were processed with an Infinity analysis software version 6.5.6 (Teledyne Lumenera, Ottawa, Canada) and analysed with Adobe Photoshop. The ImageJ software (NIH, Bethesda, MD) was used to measure the migratory area of each treatment group, with results expressed as remaining percentage of unfilled wound surface at 0 h[108]."}, "A431 [3]": {"tested_on": "A431", "assay": "Immunoblotting of apoptosis markers, A431", "conditions": "western blot, 48 h, vs untreated", "experimental": "Immunoblotting was performed according to standard procedures of the Bio-Rad electrophoresis system (Bio-Rad, Hercules, CA) as described earlier. Briefly, protein extracts were obtained by lysing cells in RIPA buffer containing protease inhibitors, and were resolved by 4–12% polyacrylamide ready mini-PROTEAN TGX gel electrophoresis with sodium dodecyl sulphate (SDS) running buffer. Gels were electrotransferred to 0.45 μm nitrocellulose membranes (Bio-Rad, Hercules, CA) in Tris-glycine (TG) buffer using a Trans-Blot Turbo Transfer Pack according to manufacturer’s instructions. Membranes were incubated for 1 h in 5–7% non-fat powdered milk dissolved in TBST (Tris-buffered saline containing 0.05% Tween 20) or 5% BSA for phosphorylated proteins, to saturate nonspecific binding sites, followed by an overnight incubation (4 °C) with primary antibodies. Membranes were washed 5× with TBST and treated with suitable HRP-conjugated secondary antibodies (Amersham Life Science Inc., Arlington Height, IL) for another 2 h at room temperature, followed by additional wash steps and chemiluminescence-based detection with the Amersham ECL Prime detection reagent kit and the Bio-Rad Quantity One ChemiDoc™ detection and imaging analysis software systems as described earlier[108]^,[109]."}}, "data": [{"compound": "O=C1CC(c2ccccc2)=NN1c1ccc(Br)cc1", "note": "[P25]", "values": [{"measurement": "IC50", "setting": "A375", "result": "14.3 ± 0.9", "unit": "µM"}, {"measurement": "IC50", "setting": "SCC-12; Homo sapiens, SCC12, 48 h, non-melanoma, MTT, 48 h, read-out: IC50 SCC-12", "result": "12.2 ± 0.6", "unit": "µM"}, {"measurement": "selectivity index (SI) SCC-12", "setting": "SCC-12; IC50 HaCaT divided by IC50 SCC-12", "result": "~2.5"}, {"measurement": "IC50", "setting": "HaCaT", "result": "30.5 ± 2", "unit": "µM"}, {"measurement": "colony formation, A431", "setting": "A431 [1]", "result": "significant concentration-dependent reductions in the relative percentage of colonies formed"}, {"measurement": "colony formation, SK-MEL-28", "setting": "SK-MEL-28", "result": "significant concentration-dependent reductions in the relative percentage of colonies formed"}, {"measurement": "scratch wound closure / migration, A431", "setting": "A431 [2]", "result": "significantly and dose-dependently decreased the scratch wound areas"}, {"measurement": "activated caspase-3, caspase-9 and cleaved PARP levels, A431", "setting": "A431 [3]; concentration-dependent", "result": "substantially increased levels"}, {"measurement": "anti-apoptotic Bcl-2 protein levels, A431", "setting": "A431 [3]", "result": "corresponding decreases"}, {"measurement": "pro-apoptotic Bax expression, A431", "setting": "A431 [3]", "result": "dose-dependent amplified expression"}]}]}
